Assay results taken from BindingDB's records for doi:10.1021/jm00387a019 (1987).

Target: Voltage-dependent L-type calcium channel subunit alpha-1C (Sus scrofa)
Experiment: Inhibition of [3H]nitrendipine binding to L-type calcium channel dihydropyridine site of porcine cardiac sarcolemma membrane vesicles

Compound	Ki [nM]
CCOC(=O)C1=C(C)N=C(C)C(=C(O)OCC)C1c1cc([N+](=O)[O-])ccc1SC (centres undefined)	80
CCOC(=O)[C@H]1[C@H]2/C(=C(\O)OCC)C(C)=N[C@]1(C)Sc1ccccc12	5000
CCOC(=O)[C@@H]1[C@H]2/C(=C(\O)OCC)C(C)=N[C@]1(C)Sc1cc([N+](=O)[O-])ccc12	3000
CCOC(=O)[C@H]1[C@H]2/C(=C(\O)OCC)C(C)=N[C@]1(C)Sc1cc([N+](=O)[O-])ccc12	5000
CCOC(=O)[C@H]1[C@H]2/C(=C(\O)OCC)C(C)=N[C@]1(C)Sc1ccc([N+](=O)[O-])cc12	650
CCOC(=O)[C@H]1[C@H]2/C(=C(\O)OCC)C(C)=N[C@]1(C)Sc1c2cccc1[N+](=O)[O-]	250
CCOC(=O)[C@@H]1[C@H]2/C(=C(\O)OCC)C(C)=N[C@]1(C)Sc1ccccc12	500
CCOC(=O)[C@@H]1[C@H]2/C(=C(\O)OCC)C(C)=N[C@]1(C)Sc1ccc([N+](=O)[O-])cc12	30
CCOC(=O)[C@@H]1[C@H]2/C(=C(\O)OCC)C(C)=N[C@]1(C)Sc1c2cccc1[N+](=O)[O-]	6000
